# Experimental data from patent US4565811A, “Sodium salt of ursodeoxycholic sulphate” (Istituto Biologico Chemioterapico "ABC" S.p.A., priority 1983, dated 1986).
# Assays:
# [1] = system: hyperdislipidemia caused by Triton WR-1339 in the rat; test: Action on the hyperdislipidemia caused by Triton WR-1339 in the rat; assay type: in vivo, Albinus rats (Witar); conditions: for Alfa-Lipoproteins: Increase towards Group 2 / Beta-Lipoproteins: Inhibition towards Group 2 / Beta/alfa ratio: Inhibition towards Group 2 / Total cholesterol: Inhibition in comparison with Group 2 / Total lipids: Inhibition in comparison with Group 2 / Triglycerids: Inhibition in comparison with Group 2: vs Group 2 (Triton control)
# Description: Action on the hyperdislipidemia caused by Triton WR-1339 in the rat
# Albinus rats (Witar) of 300-320 g each, having been fed only with water "ad libitum" for 12 hours, were treated with US and UA, by oral route, 4 hours before and 15 hours after the administration intraperitenously of Triton WR-1339 at the dosage of 300 mg/kg in 10 ml/kg of physiologic solution at 0.9%.
# US and UA dosages were 25, 50 and 100 mg/kg respectively and the rats were divided in the following groups of 10 animals each.
# Group 1: Controls treated with 10 ml/kg of physiological solution at 0.9% orally.
# Group 2: Controls treated with 300 mg/kg of Triton WR-1339 i.p. and 10 ml/kg of carboxy methyl cellulose (CMC) at 0.5%.
# Group 3, 4 and 5: UA at 25, 50 and 100 mg/kg respectively suspended in 10 ml/kg of CMC at 0.5%.
# Groups 6, 7 and 8: US at 25, 50 and 100 mg/kg respectively dissolved in 10 ml/kg of physiologic solution.
# The following Tables 1 and 2 list the results of blood-tests from addominal aorta of rats sacrificed 5 hours after the last treatment: […]
# [2] = cited from earlier work
# [3] = known compounds; cited from earlier work
# [4] = 25 mg/kg os, Triton WR-1339 rat
# [5] = 50 mg/kg os, Triton WR-1339 rat
# [6] = 100 mg/kg os, Triton WR-1339 rat
structure (smiles),measurement,setting,value
"C[C@H](CCC(=O)O)[C@H]1CC[C@H]2[C@@H]3[C@@H](O)C[C@@H]4C[C@H](O)CC[C@]4(C)[C@H]3CC[C@]12C [UA, ursodeoxycholic acid, reference compound]",Alfa-Lipoproteins Average ± SD,[1]; [4],"27,6 ± 9,8 mg/100 ml serum"
same,Beta-Lipoproteins Average ± SD,[1]; [4],"221,17 ± 38,4 mg/100 ml serum"
same,Beta/alfa ratio Average ± SD,[1]; [4],"8,95 ± 3,5 mg/100 ml serum"
same,Total cholesterol Average ± SD,[1]; [4],"244,8 ± 34,5 mg/100 ml serum"
same,Total lipids Average ± SD,[1]; [4],"3011,4 ± 513,6 mg/100 ml serum"
same,Triglycerids Average ± SD,[1]; [4],"1167,14 ± 180,5 mg/100 ml serum"
same,Alfa-Lipoproteins: Increase towards Group 2,[1]; 25 mg/kg os,"+23,2%"
same,Beta-Lipoproteins: Inhibition towards Group 2,[1]; 25 mg/kg os,"-19,1%"
same,Beta/alfa ratio: Inhibition towards Group 2,[1]; 25 mg/kg os,"-28,2%"
same,Total cholesterol: Inhibition in comparison with Group 2,[1]; 25 mg/kg os,"-15,9%"
same,Total lipids: Inhibition in comparison with Group 2,[1]; 25 mg/kg os,"-21,1%"
same,Triglycerids: Inhibition in comparison with Group 2,[1]; 25 mg/kg os,"-11,0%"
same,Alfa-Lipoproteins Average ± SD,[1]; [5],"41,7 ± 11,3 mg/100 ml serum"
same,Beta-Lipoproteins Average ± SD,[1]; [5],"133,7 ± 60,4 mg/100 ml serum"
same,Beta/alfa ratio Average ± SD,[1]; [5],"3,88 ± 1,73 mg/100 ml serum"
same,Total cholesterol Average ± SD,[1]; [5],"175,47 ± 54,26 mg/100 ml serum"
same,Total lipids Average ± SD,[1]; [5],"2517,3 ± 557,6 mg/100 ml serum"
same,Triglycerids Average ± SD,[1]; [5],"893,6 ± 298,1 mg/100 ml serum"
same,Alfa-Lipoproteins: Increase towards Group 2,[1]; 50 mg/kg os,"+86,1%"
same,Beta-Lipoproteins: Inhibition towards Group 2,[1]; 50 mg/kg os,"-51,2%"
same,Beta/alfa ratio: Inhibition towards Group 2,[1]; 50 mg/kg os,"-68,8%"
same,Total cholesterol: Inhibition in comparison with Group 2,[1]; 50 mg/kg os,"-40,7%"
same,Total lipids: Inhibition in comparison with Group 2,[1]; 50 mg/kg os,"-34,1%"
same,Triglycerids: Inhibition in comparison with Group 2,[1]; 50 mg/kg os,"-31,9%"
same,Alfa-Lipoproteins Average ± SD,[1]; [6],"39,64 ± 11,4 mg/100 ml serum"
same,Beta-Lipoproteins Average ± SD,[1]; [6],"115,5 ± 58,7 mg/100 ml serum"
same,Beta/alfa ratio Average ± SD,[1]; [6],"3,41 ± 2,29 mg/100 ml serum"
same,Total cholesterol Average ± SD,[1]; [6],"155,2 ± 50,3 mg/100 ml serum"
same,Total lipids Average ± SD,[1]; [6],"2241,14 ± 517,4 mg/100 ml serum"
same,Triglycerids Average ± SD,[1]; [6],"628,8 ± 223,0 mg/100 ml serum"
same,Alfa-Lipoproteins: Increase towards Group 2,[1]; 100 mg/kg os,"+76,8%"
same,Beta/alfa ratio: Inhibition towards Group 2,[1]; 100 mg/kg os,"-72,6%"
same,Total cholesterol: Inhibition in comparison with Group 2,[1]; 100 mg/kg os,"-47,6%"
same,Total lipids: Inhibition in comparison with Group 2,[1]; 100 mg/kg os,"-41,3%"
same,Triglycerids: Inhibition in comparison with Group 2,[1]; 100 mg/kg os,"-52,1%"
same,Dose dependence of activity inhibiting the hyperdislipidemia,"[1]; 25, 50 and 100 mg/kg oral, Triton WR-1339 rat",depends on the dosage
same,Effect on cholesterol stones,[2]; bile saturated with cholesterol,prevents the formation of cholesterol stones
same,Dissolution of radiotransparent stones,[2]; under suitable conditions,able to dissolve under suitable conditions the radiotransparent stones
same,Solubility in water,[3],pratically insoluble in water
